Target: T1, human full-length MKNK1 (Homo sapiens, UniProt Q9BUB5, T385D)
T1 construct: purchased Carna Biosciences 02-145; host or cells: insect cells (baculovirus expression system)
Experiment: MKNK1 kinase high ATP assay (TR-FRET)
Assay type: biochemical
Details: high ATP (2 mM final), 15 min preincubation with enzyme, GST-MKNK1 (T344D)
Description: MKNK1-inhibitory activity at high ATP of compounds of the present invention after their preincubation with MKNK1 was quantified employing the TR-FRET-based MKNK1 high ATP assay as described in the following paragraphs.
A recombinant fusion protein of Glutathione-S-Transferase (GST, N-terminally) and human full-length MKNK1 (amino acids 1-424 and T344D of accession number BAA 19885.1), expressed in insect cells using baculovirus expression system and purified via glutathione sepharose affinity chromatography, was purchased from Carna Biosciences (product no 02-145) and used as enzyme. As substrate for the kinase reaction the biotinylated peptide biotin-Ahx-IKKRKLTRRKSLKG (C-terminus in amide form) was used, which can be purchased e.g. from the company Biosyntan (Berlin-Buch, Germany).
For the assay 50 nL of a 100 fold concentrated solution of the test compound in DMSO was pipetted into a black low volume 384 well microtiter plate (Greiner Bio-One, Frickenhausen, Germany), 2 μL of a solution of MKNK1 in aqueous assay buffer [50 mM HEPES pH 7.5, 5 mM MgCl2, 1.0 mM dithiothreitol, 0.005% (v/v) Nonidet-P40 (Sigma)] was added and the mixture was incubated for 15 min at 22° C. to allow pre-binding of the test compounds to the enzyme before the start of the kinase reaction. Then the kinase reaction was started by the addition of 3 μL of a solution of adenosine-tri-phosphate (ATP, 3.3 mM=> final conc. in the 5 μL assay volume is 2 mM) and substrate (0.1 μM=> final conc. in the 5 μL assay volume is 0.06 μM) in assay buffer and the resulting mixture was incubated for a reaction time of 30 min at 22° C. The concentration of MKNK1 was adjusted depending of the activity of the enzyme lot and was chosen appropriate to have the assay in the linear range, typical concentrations were in the range of 0.003 μg/mL. The reaction was stopped by the addition of 5 μL of a solution of TR-FRET detection reagents (5 nM streptavidine-XL665 [Cisbio Bioassays, Codolet, France] and 1 nM anti-ribosomal protein S6 (pSer236)-antibody from Invitrogen [#44921G] and 1 nM LANCE EU-W1024 labeled ProteinG [Perkin-Elmer, product no. AD0071]) in an aqueous EDTA-solution (100 mM EDTA, 0.1% (w/v) bovine serum albumin in 50 mM HEPES pH 7.5).
The resulting mixture was incubated for 1 h at 22° C. to allow the formation of complex between the phosphorylated biotinylated peptide and the detection reagents. Subsequently the amount of phosphorylated substrate was evaluated by measurement of the resonance energy transfer from the Eu-chelate to the streptavidine-XL. Therefore, the fluorescence emissions at 620 nm and 665 nm after excitation at 350 nm were measured in a TR-FRET reader, e.g. a Rubystar (BMG Labtechnologies, Offenburg, Germany) or a Viewlux (Perkin-Elmer). The ratio of the emissions at 665 nm and at […] was taken as the measure for the amount of phosphorylated substrate. The data were normalised (enzyme reaction without inhibitor=0% inhibition, all other assay components but no enzyme=100% inhibition).

T1 sequence (Q9BUB5 1-424 isoform Q9BUB5-2 T344D): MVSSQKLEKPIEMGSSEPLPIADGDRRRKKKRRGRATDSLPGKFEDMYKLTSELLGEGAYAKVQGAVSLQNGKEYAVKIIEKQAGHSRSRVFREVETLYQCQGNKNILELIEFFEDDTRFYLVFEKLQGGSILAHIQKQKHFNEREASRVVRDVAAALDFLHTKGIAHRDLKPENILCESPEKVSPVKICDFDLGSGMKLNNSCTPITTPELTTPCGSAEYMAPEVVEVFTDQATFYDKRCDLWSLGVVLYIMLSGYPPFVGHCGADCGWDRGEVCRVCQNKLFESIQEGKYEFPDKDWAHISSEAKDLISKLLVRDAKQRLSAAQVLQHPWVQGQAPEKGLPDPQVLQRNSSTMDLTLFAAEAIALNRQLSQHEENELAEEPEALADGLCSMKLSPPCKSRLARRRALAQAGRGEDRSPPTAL

Compound	IC50
CN(C)C(=O)[C@H]1CCc2c(sc3ncnc(Nc4cnc5[nH]ncc5c4)c23)C1 [Example 59, (7S)—N,N-Dimethyl-4-(1H-pyrazolo[3,4-b]pyridin-5-ylamino)-5,6,7,8-tetrahydro[1]benzothieno[2,3-d]pyrimidine-7-carboxamide]	2.3 nM
CN(C)C(=O)[C@H]1CCc2c(sc3ncnc(Nc4cc5cn[nH]c5cn4)c23)C1 [Example 60, (7S)—N,N-Dimethyl-4-(1H-pyrazolo[3,4-c]pyridin-5-ylamino)-5,6,7,8-tetrahydro[1]benzothieno[2,3-d]pyrimidine-7-carboxamide]	7.7 nM
O=C(c1[nH]c2ncnc(Nc3cnc4[nH]ncc4c3)c2c1Br)N1CCCCC1 [Example 61, [5-Bromo-4-(1H-pyrazolo[3,4-b]pyridin-5-ylamino)-7H-pyrrolo[2,3-d]pyrimidin-6-yl](piperidin-1-yl)methanone]	120 nM
COc1nc2[nH]ncc2cc1Nc1ncnc2[nH]c(C(=O)N(C)CCN(C)C)c(Br)c12 [Example 62, 5-Bromo-N-[2-(dimethylamino)ethyl]-4-[(6-methoxy-1H-pyrazolo[3,4-b]pyridin-5-yl)amino]-N-methyl-7H-pyrrolo[2,3-d]pyrimidine-6-carboxamide]	12 nM
CN(C)CCN(C)C(=O)c1[nH]c2ncnc(Nc3cc4cn[nH]c4nc3O)c2c1Br [Example 63, 5-Bromo-N-[2-(dimethylamino)ethyl]-4-[(6-hydroxy-1H-pyrazolo[3,4-b]pyridin-5-yl)amino]-N-methyl-7H-pyrrolo[2,3-d]pyrimidine-6-carboxamide]	14.6 nM
COc1nc2[nH]ncc2cc1Nc1ncnc2[nH]c(C(=O)N3CCC(N(C)C)CC3)c(Br)c12 [Example 64, {5-Bromo-4-[(6-methoxy-1H-pyrazolo[3,4-b]pyridin-5-yl)amino]-7H-pyrrolo[2,3-d]pyrimidin-6-yl}[4-(dimethylamino)piperidin-1-yl]methanone]	4.2 nM
CN(C)C1CCN(C(=O)c2[nH]c3ncnc(Nc4cc5cn[nH]c5nc4O)c3c2Br)CC1 [Example 65]	2.8 nM
COc1nc2[nH]ncc2cc1Nc1ncnc2[nH]c(C(=O)N3CCOC[C@H]3C)c(Br)c12 [Example 66]	8.3 nM

Continued, values first:

IC50	Compound
15.2 nM	COc1nc2[nH]ncc2cc1Nc1ncnc2[nH]c(C(=O)N3CCOCC3)c(Br)c12 [Example 67, {5-Bromo-4-[(6-methoxy-1H-pyrazolo[3,4-b]pyridin-5-yl)amino]-7H-pyrrolo[2,3-d]pyrimidin-6-yl}(morpholin-4-yl)methanone]
10.1 nM	O=C(c1[nH]c2ncnc(Nc3cc4cn[nH]c4nc3O)c2c1Br)N1CCOCC1 [Example 68]
19.8 nM	CN(C)C1CCN(C(=O)c2[nH]c3ncnc(Nc4cc5cn[nH]c5cn4)c3c2Br)CC1 [Example 69, [5-Bromo-4-(1H-pyrazolo[3,4-c]pyridin-5-ylamino)-7H-pyrrolo[2,3-d]pyrimidin-6-yl][4-(dimethylamino)piperidin-1-yl]methanone]
40.7 nM	C[C@@H]1COCCN1C(=O)c1[nH]c2ncnc(Nc3cc4cn[nH]c4cn3)c2c1Br [Example 70, [5-Bromo-4-(1H-pyrazolo[3,4-c]pyridin-5-ylamino)-7H-pyrrolo[2,3-d]pyrimidin-6-yl][(3R)-3-methylmorpholin-4-yl]methanone]
43.2 nM	O=C(c1[nH]c2ncnc(Nc3cc4cn[nH]c4cn3)c2c1Br)N1CCOCC1 [Example 71, [5-Bromo-4-(1H-pyrazolo[3,4-c]pyridin-5-ylamino)-7H-pyrrolo[2,3-d]pyrimidin-6-yl](morpholin-4-yl)methanone]
16 nM	O=C(c1[nH]c2ncnc(Nc3cc4cn[nH]c4cn3)c2c1Br)N1CCCCC1 [Example 72, [5-Bromo-4-(1H-pyrazolo[3,4-c]pyridin-5-ylamino)-7H-pyrrolo[2,3-d]pyrimidin-6-yl](piperidin-1-yl)methanone]
144 nM	C[C@@H]1COCCN1C(=O)c1[nH]c2ncnc(Nc3cnc4[nH]ncc4c3)c2c1Br [Example 73, [5-Bromo-4-(1H-pyrazolo[3,4-b]pyridin-5-ylamino)-7H-pyrrolo[2,3-d]pyrimidin-6-yl][(3R)-3-methylmorpholin-4-yl]methanone]

Reference: patent US20160159789A1, “SUBSTITUTED PYRAZOLOPYRIDINES” (BAYER PHARMA AKTIENGESELLSCHAFT, priority 2013, published 2016)
